This passage reports AC50 results from patent US10640499B2 (Gilead Sciences, Inc., priority 2016, dated 2020).

Common to all, as to assay type: cell-based
The test system of experiment [1] is IL12p40. The experiment can be described thus: Cytokine profiling assay in human PBMCs, IL12-p40 detection (MSD). The note with it: PBMC; cryopreserved human PBMCs, 24 hours at 37° C.; concentration at half-maximal effect, normalized percent activation. An excerpt:
(§1) Cryopreserved human PBMCs isolated from healthy donors were purchased from StemCell Technologies (Vancouver, Canada). Cell culture medium used was RPMI with L-Glutamine (Mediatech, Manassas, Va.) supplemented with 10% fetal bovine serum (Hyclone, GE Healthcare, Logan, Utah) and Penicillin-Streptomycin (Mediatech). Human TNFα, IL12p40, and IFNα2a 384-well Assay capture plates, standards, buffers and processing reagents were obtained from MesoScale Discovery Technologies (MSD; Rockville, Md.).
(§2) Cryopreserved human PBMCs (1×10e8 cells/ml) were thawed at 37° C. and resuspended in 25 mL warm cell culture medium. The cells were pelleted at 200×g (Beckman Avanti J-E) for 5 min and resuspended in 20 mL of fresh culture media. Cells were counted using a Cellometer (Nexcelcom Bioscience), adjusted to 2×10e6 cells, and incubated for 2 hours in an incubator set at 37° C., 5% CO2 to recover from cryopreservation. Compounds were serially diluted in DMSO at half-log steps to generate a 10-point dose range. Using a Bravo pipette equipped with a 384 well head (Agilent), 0.4 μL of compound was transferred to each well of a 384 well black, clear bottom plate (Greiner Bio-One, Germany) containing 30 μL of cell culture medium. Recovered PBMCs were then dispensed into the assay plate at 50 μL per well (100 k cells/well) using the MicroFlow multichannel dispenser (Biotek). Final DMSO concentration was 0.5%. DMSO was used as the negative control. The plates were incubated for 24 hours at 37° C. PBMCs in the assay plate were pelleted by centrifugation (Beckman Avanti J-E) at 200×g for 5 min.
(§3) Using a Biomek FX 384 well pipetting station (Beckman), conditioned culture medium (CCM) from the assay plate was transferred to MSD capture plates customized for each cytokine. For IFNα and IL12-p40 detection, 25 μL and 20 μL of CCM were added directly to each capture plate, respectively. For TNFα detection, CCM was diluted 1:9 in fresh culture medium, and 20 μL of diluted CCM was used. Serially diluted calibration standards for each cytokine were used to generate standard curves and establish assay linearity. The plates were sealed and incubated overnight at 4° C. in a plate shaker (Titer Plate) set at 200 rpm. On the following day, antibodies specific for each cytokine were diluted 1:50 in MSD Diluent 100 antibody dilution buffer. Diluted antibodies were added to corresponding capture plates at 10 μL/well, and incubated at RT for 1-2 hrs in the shaker. The plates were washed with PBST buffer (3×, 60 μl/well) using a Biotek Multiflow plate washer. MSD Read Buffer diluted to 2× in deionized water and 35 μL/well was added via Biomek FX instrument. The plates were read immediately in a MSD6000 reader. Data were normalized to positive and negative controls in each assay plate. AC50 values represent compound concentrations at half-maximal effect based on normalized percent activation and calculated by non-linear regression using Pipeline Pilot software (Accelrys, San Diego, Calif.).

Experiment [2] relates to IFNα. The experiment can be described thus: Cytokine profiling assay in human PBMCs, IFNα detection (MSD). Particulars: PBMC; cryopreserved human PBMCs, 24 hours at 37° C.; concentration at half-maximal effect, normalized percent activation; read-out: IFNa AC50.
From the text: as §1, §2, §3

Experiment [3] deals with TNFα. The experiment can be described thus: Cytokine profiling assay in human PBMCs, TNFα detection (MSD). Particulars: PBMC; cryopreserved human PBMCs, 24 hours at 37° C.; concentration at half-maximal effect, normalized percent activation; read-out: TNFa AC50.
From the text: as §1, §2, §3

Broadly, the AC50 is the midpoint of the concentration-response curve, whichever way the signal moves. On to `CCCC[C@H](CNC(C)=O)Nc1nc(N)nc2cc(F)cnc12` [Compound 8, (R)—N-(2-((2-amino-7-fluoropyrido[3,2-d]pyrimidin-4-yl)amino)hexyl)acetamide], for which the values for the AC50 in experiment [1], in experiment [2] and in experiment [3] were 1480 nM, over 50000 nM and 1880 nM, respectively.
The matching figures for `CCCC[C@](C)(CNC(C)=O)Nc1nc(N)nc2cc(C(C)C)cnc12` [Compound 2, (R)—N-(2-((2-amino-7-isopropylpyrido[3,2-d]pyrimidin-4-yl)amino)-2-methylhexyl)acetamide]: 209 nM, 35000 nM and 262 nM.
The matching figures for `CCCC[C@](C)(CNC(C)=O)Nc1nc(N)nc2cc(OC)cnc12` [Compound 4, (R)—N-(2-((2-amino-7-methoxypyrido[3,2-d]pyrimidin-4-yl)amino)-2-methylhexyl)acetamide]: 120 nM, over 50000 nM and 122 nM.
The matching figures for `CCCC[C@](C)(CNC(C)=O)Nc1nc(N)nc2cc(CC)cnc12` [Compound 1, (R)—N-(2-((2-amino-7-ethylpyrido[3,2-d]pyrimidin-4-yl)amino)-2-methylhexyl)acetamide]: 60.4 nM, 44600 nM and 85.3 nM.
`CCCC[C@](C)(CNC(C)=O)Nc1nc(N)nc2cc(OCC)cnc12` [Compound 5, (R)—N-(2-((2-amino-7-ethoxypyrido[3,2-d]pyrimidin-4-yl)amino)-2-methylhexyl)acetamide]: the AC50 in experiment [1] is 48.4 nM; in experiment [2], over 50000 nM; in experiment [3], 81.2 nM.
The corresponding values for `CCC[C@](C)(CNC(C)=O)Nc1nc(N)nc2cccnc12` [Compound 6, (R)—N-(2-((2-aminopyrido[3,2-d]pyrimidin-4-yl)amino)-2-methylpentyl)acetamide] are 1240 nM, over 50000 nM and 1460 nM.
The matching figures for `CCCCCC[C@](C)(CNC(C)=O)Nc1nc(N)nc2cccnc12` [Compound 7]: 2670 nM, over 50000 nM and 4190 nM.
